Data taken from patent US6559164B1, “Substituted pyrroles suitable for continuous infusion” (Hoffmann-La Roche Inc., priority 1999, dated 2003).
Counter-ions that a name gives are not always drawn.

Key:
[1] = Stability in solution for intravenous administration (release of 3-(1-methyl-3-indolyl)-4-(1-methyl-6-nitro-3-indolyl)-1H-pyrrole-2,5-dione); type: physicochemical; settings: 72 hours at room temperature in a mixture of acetonitrile and saline or dextrose water; parent pyrrole-2,5-dione detected
Description: “Stability” is an overall assessment of the ability of a compound of formula I to withstand degradation in a typical solution used for the administration of drugs intravenously. Specifically, it refers to the ability of any given compound of formula I to release 3-(1-methyl-3-indolyl)-4-(1-methyl-6-nitro-3-indolyl)-1H-pyrrole-2,5-dione, over a 72 hour period in a mixture of acetonitrile and saline or dextrose water. The
“stability” of a compound of formula I is “very good” if the less than 1% 3-(1-Methyl-3-indolyl)-4-(1-methyl-6-nitro-3-indolyl)-1H-pyrrole-2,5-dione is detected, “good” if less than 2.5% 3-(1-Methyl-3-indolyl)-4-(1-methyl-6-nitro-3-indolyl)-1H-pyrrole-2,5-dione is detected, and “fair” if less than 5% 3-(1-Methyl-3-indolyl)-4-(1-methyl-6-nitro-3-indolyl)-1H-pyrrole-2,5-dione is detected after 72 hours incubation at room temperature.

[2] = Plasma conversion (degradation in plasma to the active metabolite); type: in vitro ADME; settings: human or rodent plasma at 37° C., percent degradation
Description: “Plasma conversion” with respect to compounds of formula I means the degradation (enzymatic and/or non-enzymatic) of such compound in human or rodent plasma at 37° C. from 30 minutes to 6 hours to give 3-(1-methyl-3-indolyl)-4-(1-methyl-6-nitro-3-indolyl)-1H-pyrrole-2,5-dione, a pharmaceutically active metabolite of compounds of formula I, as well as pharmaceutically active metabolites thereof. This conversion is typically given as the percent degradation over a specified time frame.

| Compound | Stability [1] | Plasma Conversion ([2]; @ 30 min) [% @ 30 min] | other results |
| --- | --- | --- | --- |
| Cn1cc(C2=C(c3cn(C)c4cc([N+](=O)[O-])ccc34)C(=O)N(CO)C2=O)c2ccccc21 | – | – | melting point: 209 to 211 °C |
| Cn1cc(C2=C(c3cn(C)c4cc([N+](=O)[O-])ccc34)C(=O)N(COC(=O)c3ccc[n+](C)c3)C2=O)c2ccccc21 [Example 12, 1-Methyl-3-[3-(1-methyl-1H-indol-3-yl)-4-(1-methyl-6-nitro-1H-indol-3-yl)-2,5-dioxo-2,5-dihydro-pyrrol-1-ylmethoxycarbonyl]-pyridinium; Trifluoroacetate] | Fair | 60 | – |
| Cn1cc(C2=C(c3cn(C)c4cc([N+](=O)[O-])ccc34)C(=O)N(COC(=O)c3ccc(OP(=O)(O)O)cc3)C2=O)c2ccccc21 [Example 14, 4-Phosphonooxy-benzoic Acid 3-(1-Methyl-1H-indol-3-yl)-4-(1-methyl-6-nitro-1H-indol-3-yl)-2,5-dioxo-2,5-dihydro-pyrrol-1-ylmethyl Ester Monosodium Salt] | Good | – | Plasma Conversion ([2]; @ 4 hrs): 5% @ 4 hrs |
| Cn1cc(C2=C(c3cn(C)c4cc([N+](=O)[O-])ccc34)C(=O)N(COC(=O)NCCOP(=O)(O)O)C2=O)c2ccccc21 [Example 20, (2-Phosphonooxy-ethyl)-carbamic Acid 3-(1-Methyl-1H-indol-3-yl)-4-(1-methyl-6-nitro-1H-indol-3-yl)-2,5-dioxo-2,5-dihydro-pyrrol-1-ylmethyl Ester] | Good | – | – |
| CCN(CC)CCNC(=O)N1C(=O)C(c2cn(C)c3ccccc23)=C(c2cn(C)c3cc([N+](=O)[O-])ccc23)C1=O [Example 21, 3-(1-Methyl-1H-indol-3-yl)-4-(1-methyl-6-nitro-1H-indol-3-yl)-2,5-dioxo-2,5-dihydro-pyrrole-1-carboxylic Acid (2-Diethylamino-ethyl)-amide] | Fair | – | Plasma Conversion ([2]; @ 1 hr): 100% @ 1 hr |
| Cn1cc(C2=C(c3cn(C)c4cc([N+](=O)[O-])ccc34)C(=O)N(C(=O)NCCCCOP(=O)([O-])[O-])C2=O)c2ccccc21.[Na+].[Na+] [Example 24, Phosphoric Acid Mono-(4-{[3-(1-methyl-1H-indol-3-yl)-4-(1-methyl-6-nitro-1H-indol-3-yl)-2,5-dioxo-2,5-dihydro-pyrrole-1-carbonyl]-amino}-butyl) Ester Sodium Salt] | Good | – | Plasma Conversion ([2]; @ 6 hrs): 10% @ 6 hrs |
| [[3-(1-Methyl-1H-indol-3-yl)-4-(1-methyl-6-nitro-1H-indol-3-yl)-2,5-dioxo-2,5-dihydro-pyrrol-1-yl]methoxycarbonyl]-4-phenyl-O-methylpolyethylene Glycol 500 [Example 15] | Good | – | Plasma Conversion ([2]; @ 2 hrs): 100% @ 2 hrs |

Continued, in another order:

| Stability [1] | Plasma Conversion ([2]; @ 30 min) [% @ 30 min] | Compound | other results |
| --- | --- | --- | --- |
| Good | 70 | Cn1cc(C2=C(c3cn(C)c4cc([N+](=O)[O-])ccc34)C(=O)N(COC(=O)c3cccnc3)C2=O)c2ccccc21 [Example 3a, nicotinic acid 3-(1-methyl-1H-indol-3-yl)-4-(1-methyl-6-nitro-1H-indol-3-yl)-2,5-dioxo-2,5-dihydro-pyrrol-1-ylmethyl ester] | – |
| Good | 60 | Cn1cc(C2=C(c3cn(C)c4cc([N+](=O)[O-])ccc34)C(=O)N(COC(=O)Cc3ccncc3)C2=O)c2ccccc21 [Example 3c, pyridin-4-yl acetic acid 3-(1-methyl-1H-indol-3-yl)-4-(1-methyl-6-nitro-1H-indol-3-yl)-2,5-dioxo-2,5-dihydro-pyrrol-1-ylmethyl ester] | – |
| Good | 70 | Cn1cc(C2=C(c3cn(C)c4cc([N+](=O)[O-])ccc34)C(=O)N(COC(=O)Cc3cccnc3)C2=O)c2ccccc21 [Example 3d, pyridin-3-yl acetic acid 3-(1-methyl-1H-indol-3-yl)-4-(1-methyl-6-nitro-1H-indol-3-yl)-2,5-dioxo-2,5-dihydro-pyrrol-1-ylmethyl ester] | – |
| Good | 20 | Cn1cc(C2=C(c3cn(C)c4cc([N+](=O)[O-])ccc34)C(=O)N(COC(=O)CCC(=O)O)C2=O)c2ccccc21 [Example 3f, succinic acid mono-[3-(1-methyl-1H-indol-3-yl)-4-(1-methyl-6-nitro-1H-indol-3-yl)-2,5-dioxo-2,5-dihydro-pyrrol-1-ylmethyl] ester] | – |
| Good | – | CCCCCCC=CCCCCCCCC(=O)OCN1C(=O)C(c2cn(C)c3ccccc23)=C(c2cn(C)c3cc([N+](=O)[O-])ccc23)C1=O [Example 3g, hexadec-9-enoic 3-(1-methyl-1H-indol-3-yl)-4-(1-methyl-6-nitro-1H-indol-3-yl)-2,5-dioxo-2,5-dihydro-pyrrol-1-ylmethyl ester] | – |
| Fair | – | Cn1cc(C2=C(c3cn(C)c4cc([N+](=O)[O-])ccc34)C(=O)N(COC(=O)COCCOCCOCCOCC(=O)O)C2=O)c2ccccc21 [Example 3h, [2-[2-(2-carboxymethoxy-ethoxy)-ethoxy]-ethoxy] acetic acid-3-(1-methyl-1H-indol-3-yl)-4-(1-methyl-6-nitro-1H-indol-3-yl)-2,5-dioxo-2,5-dihydro-pyrrol-1-ylmethyl ester] | – |
| Good | 30 | Cn1cc(C2=C(c3cn(C)c4cc([N+](=O)[O-])ccc34)C(=O)N(COC(=O)C3CCNCC3)C2=O)c2ccccc21 [Example 8a, piperidine-4-carboxylic acid 3-(1-methyl-1H-indol-3-yl)-4-(1-methyl-6-nitro-1H-indol-3-yl)-2,5-dioxo-2,5-dihydro-pyrrol-1-ylmethyl ester trifluoroacetate] | – |
